Reference: patent US20240287429A1, “MEDICINAL AGENT EFFECT PREDICTION SYSTEM” (Tohoku Institute of Technology, priority 2021, published 2024)

Columns and labels:
peripheral nerves = conditions: stated as known; not the applicant's own test; cited from earlier work
[1] = test system: neurites growing from nerve cells (rat DRG cells); test: assessment by medicinal agent effect prediction system: microscope image of neurites cultured in the microfluidic device, applied to learned model M1; format: cell-based; conditions: image of FIG. 10 applied to learned model M1; result shown in FIG. 11
Text: FIG. 7A to FIG. 7D are observation images obtained by culturing nerve cells 41 in the microfluidic devices 30 using culture solutions respectively containing different known substances and observing, with a microscope, neurites 42 located in the second culture spaces 37. It should be noted that rat DRG cells are herein used as nerve cells 41, but various cells such as mouse DRG cells, human ES cells, or human iPS cells can be used.
Then, neurites 42 growing from the nerve cells 41 and located in the second culture space 37 were observed by the microscope 50 to obtain an observation image.
Image data based on the observation image was input as input data for assessment i42t to the system 10 through the data input receiving unit 11. In the system 10, the assessment unit 15 applied the input data for assessment i42t to the learned model M1. That is, features based on the input data for assessment i42t were applied to the input layer of the learned model M1. As a result, the result of assessment shown in FIG. 11 was output from the display output unit 17.
The percentage of correct answers is further improved by increasing the number of samples of teaching data and the number of times of learning.

Row | SMILES | impairment of peripheral nerves the substance is known to cause (peripheral nerves) | result of assessment (impaired nerve site predicted by the system) [1]
1 | OC[C@H]1O[C@@](CO)(O[C@H]2O[C@H](CO)[C@@H](O)[C@H](O)[C@H]2O)[C@@H](O)[C@@H]1O [Sucrose] | not to be toxic to peripheral nerves | 
2 | O=C1[O][Pt]2([NH][C@@H]3CCCC[C@H]3[NH]2)[O]C1=O [Oxaliplatin] | neuronopathy | 
3 | CC(=O)O[C@H]1C(=O)[C@@]2(C)[C@H]([C@H](OC(=O)c3ccccc3)[C@]3(O)C[C@H](OC(=O)[C@H](O)[C@@H](NC(=O)c4ccccc4)c4ccccc4)C(C)=C1C3(C)C)[C@]1(OC(C)=O)CO[C@@H]1C[C@@H]2O [Paclitaxel] |  | high possibility of causing axonopathy
4 | CC[C@]1(O)C[C@H]2CN(CCc3c([nH]c4ccccc34)[C@@](C(=O)OC)(c3cc4c(cc3OC)N(C=O)[C@H]3[C@@](O)(C(=O)OC)[C@H](OC(C)=O)[C@]5(CC)C=CCN6CC[C@]43[C@@H]65)C2)C1 [Vincristine] | axonopathy | 
